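Following 48 hours of exposure in 96-well plates, responses at five concentrations were used to interpolate endpoints linearly. TGI: total growth inhibition.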

Drawing on PubChem BioAssay (NCI), this text covers TGI for 24 compounds.

Test systems include RXF 393 renal; PC-3 prostate; UO-31 renal; K-562 leukemia; OVCAR-4 ovarian; BT-549 breast; SF-295 CNS; DU-145 prostate; SW-620 colon; HS 578T breast.
Holding throughout (assay): growth of human tumour cells (NCI), 48 h

In the case of `CCOC(=O)[C@@]12C[C@](/C=C/OC)(O[Si](C)(C)C)[C@@]13c1cc(OC)c(OC)cc1CCN3C(=O)C2=O`, the TGI with RXF 393 renal, in the experiment on PC-3 prostate, in the experiment on UO-31 renal, with K-562 leukemia, in the experiment with OVCAR-4 ovarian and in the experiment with BT-549 breast was above 100 µM throughout. The TGI with SF-295 CNS, in the experiment with DU-145 prostate, in the experiment on SW-620 colon and in the experiment on HS 578T breast was above 100 µM throughout.

Turning to `CCCOC(=O)c1cc(O)c(O)c(O)c1`, the TGI with RXF 393 renal, with PC-3 prostate, in the experiment with UO-31 renal, in the experiment with K-562 leukemia, with OVCAR-4 ovarian and in the experiment with BT-549 breast was above 100 µM each time. Moreover, the TGI in the experiment with SF-295 CNS, in the experiment with DU-145 prostate, with SW-620 colon and in the experiment with HS 578T breast was above 100 µM throughout.

Take `Cc1nc2ccc(NCCN(C)C)c3c(=O)c4ccccc4n1c23`: the TGI in the experiment on RXF 393 renal is 22.9 µM; in the experiment with PC-3 prostate it was 8.8 µM; in the experiment on UO-31 renal, 11.1 µM; in the experiment with K-562 leukemia, above 54.8 µM; with OVCAR-4 ovarian, 6.82 µM; in the experiment on BT-549 breast, 23.6 µM. Further, the TGI with SF-295 CNS was 14.2 µM; in the experiment with DU-145 prostate it was 6.87 µM; in the experiment on SW-620 colon, 9.15 µM; in the experiment with HS 578T breast, 9.15 µM.

Turning to `COC(=O)[C@@H]1c2c(oc3cc(CO)cc(O)c3c2=O)C=C[C@H]1O`, the TGI was 10.1 µM in the experiment on RXF 393 renal; 20.1 µM in the experiment on PC-3 prostate; 14.2 µM with UO-31 renal; above 100 µM in the experiment with K-562 leukemia; 12 µM with OVCAR-4 ovarian; 12.4 µM with BT-549 breast. In addition, the TGI in the experiment with SF-295 CNS was determined as 35.7 µM; with DU-145 prostate, 11.7 µM; in the experiment with SW-620 colon, 10.4 µM; with HS 578T breast, 55.8 µM.

`COC(=O)/C=C(C)/C=C\COC1CCCCO1` (stereo not given): the TGI with RXF 393 renal, with PC-3 prostate, in the experiment on UO-31 renal, in the experiment on K-562 leukemia, in the experiment with OVCAR-4 ovarian and in the experiment on BT-549 breast was above 100 µM in each case. The TGI in the experiment on SF-295 CNS, in the experiment with DU-145 prostate, with SW-620 colon and in the experiment with HS 578T breast was above 100 µM in each case.

As for `O=c1cc(NNc2cccc3ccccc23)[nH]c(=O)[nH]1`, the TGI in the experiment on RXF 393 renal was 31.9 µM; with PC-3 prostate, 27 µM; in the experiment on UO-31 renal it was 29.8 µM; in the experiment with K-562 leukemia it was above 100 µM; in the experiment with OVCAR-4 ovarian, 31.2 µM; in the experiment with BT-549 breast, 30.2 µM. Also, the TGI in the experiment on SF-295 CNS is 31.4 µM; in the experiment on DU-145 prostate it was 28.6 µM; in the experiment on SW-620 colon, 40 µM; in the experiment with HS 578T breast it was 68.7 µM.

Turning to `CC(C)=CCC[C@@H](C)C1=C(O)C(N[C@H](C)c2ccccc2)=C(C)C(=O)C1=O`, the TGI in the experiment with RXF 393 renal is 25 µM; in the experiment on PC-3 prostate, above 100 µM; with UO-31 renal it was 38.9 µM; with K-562 leukemia, above 60.7 µM; in the experiment with OVCAR-4 ovarian, above 60.1 µM; in the experiment with BT-549 breast, 67 µM. In addition, the TGI is 16.9 µM in the experiment with SF-295 CNS, 38.9 µM in the experiment with DU-145 prostate, above 45.2 µM with SW-620 colon and 36.7 µM in the experiment with HS 578T breast.

For the compound `NC1=Nc2cc(C(F)(F)F)ccc2Sc2nc3ccccc3n21`, the TGI with RXF 393 renal, in the experiment with PC-3 prostate, with UO-31 renal, in the experiment on K-562 leukemia, in the experiment with OVCAR-4 ovarian and with BT-549 breast was above 100 µM throughout. The TGI in the experiment on SF-295 CNS, in the experiment with DU-145 prostate, in the experiment on SW-620 colon and in the experiment on HS 578T breast was above 100 µM each time.

On to `C[N+](C)(CCNc1ccc(NCC[N+](C)(C)Cc2ccc([N+](=O)[O-])cc2)c2c1C(=O)c1c(O)ccc(O)c1C2=O)Cc1ccc([N+](=O)[O-])cc1`, for which the TGI in the experiment with RXF 393 renal was above 50 µM; with PC-3 prostate it was above 50 µM; in the experiment with UO-31 renal it was above 50 µM; with K-562 leukemia it was above 5 µM; with OVCAR-4 ovarian it was above 50 µM; in the experiment with BT-549 breast, above 50 µM. Besides, the TGI with SF-295 CNS, in the experiment with DU-145 prostate, in the experiment with SW-620 colon and with HS 578T breast was above 50 µM throughout.

For `COCN1C(=O)[C@@H]2CCCN2C(=O)c2ccc(N)cc21`, the TGI in the experiment with RXF 393 renal, with PC-3 prostate, in the experiment on UO-31 renal, with K-562 leukemia, in the experiment on OVCAR-4 ovarian and with BT-549 breast was above 100 µM in each case. Moreover, the TGI in the experiment on SF-295 CNS, in the experiment with DU-145 prostate, in the experiment with SW-620 colon and in the experiment on HS 578T breast was above 100 µM throughout.

Consider `COC1OC2COC(=O)c3cc(O)c(O)c(O)c3-c3c(cc(O)c(O)c3O)C(=O)OC2C(O)C1O` (stereo not given), for which the TGI with RXF 393 renal, in the experiment with PC-3 prostate, in the experiment on UO-31 renal, in the experiment on K-562 leukemia, in the experiment on OVCAR-4 ovarian and with BT-549 breast was above 100 µM each time. The TGI was 37.8 µM with SF-295 CNS, above 100 µM in the experiment on DU-145 prostate, 57.9 µM in the experiment with SW-620 colon and above 100 µM in the experiment on HS 578T breast.

With `CC(=O)c1csc2c1C(=O)c1ccccc1C2=O`, the TGI in the experiment with RXF 393 renal is 26.7 µM; in the experiment with PC-3 prostate it was above 100 µM; with UO-31 renal it was 6.13 µM; in the experiment with K-562 leukemia, above 100 µM; in the experiment with OVCAR-4 ovarian it was 18.3 µM; in the experiment with BT-549 breast, 3.01 µM. In addition, the TGI in the experiment on SF-295 CNS came to 3 µM; in the experiment on DU-145 prostate it was 3.21 µM; with SW-620 colon, 5.4 µM; with HS 578T breast it was 7.11 µM.

Consider `CC1=NN(c2nc(N)nc(CO)n2)C(C)(C)C1`, for which the TGI in the experiment on RXF 393 renal, in the experiment with PC-3 prostate, in the experiment on UO-31 renal, in the experiment with K-562 leukemia, in the experiment with OVCAR-4 ovarian and with BT-549 breast was above 100 µM in each case. Also, the TGI in the experiment on SF-295 CNS, with DU-145 prostate, with SW-620 colon and with HS 578T breast was above 100 µM in each case.

For `O=C1Cc2cc3ccccc3nc2-c2ccccc2N1`, the TGI with RXF 393 renal, in the experiment on PC-3 prostate, in the experiment with UO-31 renal, in the experiment with K-562 leukemia, in the experiment with OVCAR-4 ovarian and in the experiment with BT-549 breast was above 100 µM throughout. Also, the TGI with SF-295 CNS, with DU-145 prostate, in the experiment with SW-620 colon and in the experiment on HS 578T breast was above 100 µM throughout.

As for `O=C(NNC(=O)c1ccco1)c1ccco1`, the TGI in the experiment with RXF 393 renal, in the experiment with PC-3 prostate, in the experiment with UO-31 renal, with K-562 leukemia, with OVCAR-4 ovarian and with BT-549 breast was above 100 µM throughout. Also, the TGI in the experiment on SF-295 CNS, in the experiment with DU-145 prostate, in the experiment on SW-620 colon and with HS 578T breast was above 100 µM each time.

For the compound `Cc1sc(/N=C/C2=C(O)CC(C)(C)CC2=O)nc1-c1ccccc1`, the TGI in the experiment with RXF 393 renal, in the experiment with PC-3 prostate, with UO-31 renal, with K-562 leukemia, in the experiment on OVCAR-4 ovarian and in the experiment on BT-549 breast was above 100 µM throughout. In addition, the TGI with SF-295 CNS, in the experiment on DU-145 prostate, with SW-620 colon and with HS 578T breast was above 100 µM each time.

Consider `Cc1c(C#N)c2nnn(-c3cccc(Cl)c3)c(=O)n2c1-c1ccccc1`, for which the TGI in the experiment with RXF 393 renal was 5.84 µM; in the experiment on PC-3 prostate it was 9.91 µM; in the experiment with UO-31 renal, above 100 µM; in the experiment with K-562 leukemia, 4.03 µM; in the experiment on OVCAR-4 ovarian it was above 100 µM; with BT-549 breast, above 100 µM. Besides, the TGI in the experiment with SF-295 CNS is 4.98 µM; with DU-145 prostate, 40.4 µM; in the experiment with SW-620 colon it was above 100 µM; with HS 578T breast, above 100 µM.

In the case of `CNC(=O)OCc1cnc([N+](=O)[O-])n1C`, the TGI in the experiment with RXF 393 renal, with PC-3 prostate, in the experiment with UO-31 renal, in the experiment on K-562 leukemia, with OVCAR-4 ovarian and in the experiment with BT-549 breast was above 100 µM each time. Also, the TGI with SF-295 CNS, in the experiment on DU-145 prostate, in the experiment with SW-620 colon and in the experiment on HS 578T breast was above 100 µM in each case.

For the compound `COC(=O)c1ccccc1C1CN=NC12Cc1ccc(C)cc1C2=O` (stereo not given), the TGI in the experiment on RXF 393 renal, in the experiment on PC-3 prostate, with UO-31 renal, in the experiment with K-562 leukemia, in the experiment on OVCAR-4 ovarian and with BT-549 breast was above 100 µM in each case. Also, the TGI in the experiment on SF-295 CNS, in the experiment on DU-145 prostate, with SW-620 colon and in the experiment on HS 578T breast was above 100 µM in each case.

`CCOC(=O)C(C)c1nc2cc(F)c(F)cc2[nH]c1=O` (stereo not given): the TGI in the experiment on RXF 393 renal, with PC-3 prostate, with UO-31 renal, with K-562 leukemia, in the experiment with OVCAR-4 ovarian and in the experiment on BT-549 breast was above 100 µM in each case. Besides, the TGI with SF-295 CNS, in the experiment on DU-145 prostate, in the experiment with SW-620 colon and in the experiment on HS 578T breast was above 100 µM in each case.

For `O=C(C[N+]12CN3CN(CN(C3)C1)C2)c1ccc(-c2ccccc2)cc1`, the TGI in the experiment on RXF 393 renal is 37.7 µM; in the experiment on PC-3 prostate it was 34 µM; in the experiment on UO-31 renal, 61.8 µM; in the experiment on K-562 leukemia, 33.7 µM; with OVCAR-4 ovarian it was above 100 µM; in the experiment on BT-549 breast it was 71.7 µM. Further, the TGI in the experiment with SF-295 CNS is 43.6 µM; in the experiment on DU-145 prostate it was 40 µM; in the experiment with SW-620 colon, 30 µM; with HS 578T breast, above 100 µM.

Turning to `CC(=O)O[C@H]1[C@@H](N2CCOCC2)C[C@H]2[C@@H]3CC=C4C[C@@H](N5CCCC5)CC[C@]4(C)[C@H]3CC[C@@]21C`, the TGI with RXF 393 renal, in the experiment with PC-3 prostate, in the experiment on UO-31 renal, in the experiment on K-562 leukemia, in the experiment on OVCAR-4 ovarian and with BT-549 breast was above 100 µM throughout. For the same compound, the TGI with SF-295 CNS, in the experiment with DU-145 prostate, in the experiment on SW-620 colon and with HS 578T breast was above 100 µM each time.

Turning to `O=C1NC(N2CCCC(CO)C2)=N/C1=C\c1cccs1` (stereo not given), the TGI with RXF 393 renal, in the experiment with PC-3 prostate, in the experiment on UO-31 renal, in the experiment on K-562 leukemia, in the experiment on OVCAR-4 ovarian and with BT-549 breast was above 100 µM throughout. Further, the TGI in the experiment on SF-295 CNS, in the experiment on DU-145 prostate, in the experiment on SW-620 colon and in the experiment with HS 578T breast was above 100 µM in each case.

As for `NC(=S)NNCC(=O)CC(O)(C(F)(F)F)C(F)(F)Cl` (stereo not given), the TGI in the experiment with RXF 393 renal, in the experiment with PC-3 prostate, with UO-31 renal, in the experiment on K-562 leukemia, in the experiment on OVCAR-4 ovarian and in the experiment on BT-549 breast was above 100 µM in each case. Besides, the TGI with SF-295 CNS, with DU-145 prostate, in the experiment on SW-620 colon and in the experiment with HS 578T breast was above 100 µM each time.
